According to patent publication US5461176A, “Processes for preparing bis-naphthalimides containing amino-acid derived linkers” (The Du Pont Merck Pharmaceutical Company, priority 1994, dated 1995):
≈ marks a conversion by molar mass, not a printed value. Like-named read-outs stand apart in the source and are kept apart here.

Assays:
[1] = system: murine leukemia L1210 cells; experiment: In vitro growth inhibition of L1210 cells (MTT); assay type: cell-based; details: Mus musculus
Procedure: L1210 cells were maintained in RPMI-1640 a medium supplemented with 10% heat inactivated fetal bovine serum and […] (RPMI-L). B16 cells were maintained in RPMI-1640 medium supplemented with 15% heat inactivated fetal bovine serum and antiobiotics (RPMI-C).
Exponentially growing murine leukemia L1210 cells (1×10^3 cells) in 0.1 mL medium were seeded on day 0 in a 96-well microtiter plate. On day 1, […] aliquot of medium containing graded concentrations of test analogs was added to the initial volume. After incubation at 37° C. in a humidified incubator for 3 days, the plates were centrifuged briefly and […] of the growth medium was removed. Cell cultures were incubated with 50 μL of 3-(4,5-dimethylthiazol-2-yl)-2,5-diphenyltetrazolium bromide (MTT; 1 mg/ml in Dulbecco's phosphate buffer saline) for 4 hours at 37° C. The resulting purple formazan precipitate was solubilized with 200 μL of 0.04N HCl in isopropyl alcohol. Absorbance was read in a Titertek Multiskan MCC scaning well spectrophotometer (Flow Laboratories) at a test wavelength of 570 nm and a reference wavelength of 630 nm.
The ID50 values were determined by a computer program that fit all of the data (8 determinations per concentration and 12 concentrations per test analog) to the following equation:
Y=((Am-Ao)/(1+(X/ID50)n))+Ao
where: Am=absorbance of the control cells; Ao=absorbance of the cells in the presence of highest drug concentration; Y=observed absorbance; X=drug concentration; ID50 =dose of drug that inhibits the growth of cells to one half that of the control cells.

DLD-2 human colon tumor = experiment: In vivo human tumor xenograft model, DLD-2 human colon tumor in nude mice; details: i.v. once daily for nine consecutive days, tumor growth inhibition, NCI criteria
From the text: (§1) The DLD-2 human colon tumor, MX-1 human mammary carcinoma, and LX-1 human lung tumor were originally obtained from a surgically removed primary colon carcinoma, breast tumor, and non-small lung carcinoma, respectively. The human tumor lines were maintained by serial passage in athymic nude mice. The MX-1 human mammary carcinoma and LX-1 human lung tumor are established tumors used by the NCI. The DLD-2, MX-1, and LX-1 tumor models have been well characterized.
(§2) The mice used in these experiments were outbred Swiss mice or BALB/c mice bearing the nude (nu/nu) gene. On day 0 male and female mice weighing 22-30 g are inoculated with 0.2 mL of a 25% tumor mince. This mince is prepared by mincing fresh tumor tissue, grown subcutaneously in passage mice, in sterile physiological saline. Palpable tumors weighing approximately 50 mg appear in the mice within 7-10 days after inoculation. The mice are pair matched by tumor weight and sex into groups of ten each and the test compounds and vehicle control are administered intravenously (i.v.) once daily for nine consecutive days. A >20% decrease in body weight on day 5 following compound administration is considered an indication of toxicity. Tumor measurements and body weights are recorded once a week. Fifteen to 18 days after the initial injection the mice are weighed, sacrificed and the tumors excised and weighed.
(§3) The efficacy of the test compounds is determined by the extent of tumor growth inhibition in treated versus vehicle-treated control mice. Initial tumor weights (mg) are calculated from the tumor dimensions (mm) measured from caliper measurements, using the formula for a prolate ellipsoid (mg of tumor weight=(length×width^2)/2). Net tumor weights are calculated for each of the treated groups and the vehicle-treated control group by subtracting the initial tumor weight from the final tumor weight on day 15. Results are expressed as a percentage decrease relative to the mean tumor weight for the control vehicle-treated group. [formula]
(§4) The criteria of the National Cancer Institute (NCI) for activity in the in vivo cancer models were used. Tumor growth inhibition of 58-89% in the DLD-2 assay is considered moderate activity and inhibition of ≥90% is condidered good to excellent activity.

[2] = system: MX-1 human mammary carcinoma; experiment: In vivo human tumor xenograft model, MX-1 human mammary carcinoma in nude mice; details: i.v. once daily for nine consecutive days, NCI criteria
From the text: as §1, §2, §3, §4

LX-1 human lung tumor = experiment: In vivo human tumor xenograft model, LX-1 human lung tumor in nude mice; details: i.v. once daily for nine consecutive days, NCI criteria
From the text: as §1, §2, §3, §4

Row | SMILES | IC50 ([1]; L1210, 72 h, read-out: ID50) [µg/mL] | activity against DLD-2 human colon tumors (DLD-2 human colon tumor) | activity in the MX-1 human breast tumor model [2] | activity against LX-1 human lung tumors (LX-1 human lung tumor) | IC50 ([1]; 72 h, murine leukemia L1210 cells, 3 days incubation, MTT, read-out: ID50 (the source's name)) [µg/mL]
1 | C[C@@H](CN1C(=O)c2cccc3cc([N+](=O)[O-])cc(c23)C1=O)NCCN[C@@H](C)CN1C(=O)c2cccc3cc([N+](=O)[O-])cc(c23)C1=O (relative stereo) [Example 42] | < 0.001 |  |  |  | 
2 | C[C@H](CN1C(=O)c2cccc3c([N+](=O)[O-])ccc(c23)C1=O)NCCN[C@H](C)CN1C(=O)c2cccc3c([N+](=O)[O-])ccc(c23)C1=O [Example 31] | 0.19 (≈ 0.304 µM) |  |  |  | 
3 | CC(CN1C(=O)c2cccc3cc([N+](=O)[O-])cc(c23)C1=O)NCCNC(C)CN1C(=O)c2cccc3cc([N+](=O)[O-])cc(c23)C1=O (racemic) [Example 30] | < 0.01 | excellent to outstanding activity | excellent to outstanding activity |  | 
4 | C[C@H](CNCCNC[C@@H](C)N1C(=O)c2cccc3cc([N+](=O)[O-])cc(c23)C1=O)N1C(=O)c2cccc3cc([N+](=O)[O-])cc(c23)C1=O [Example 3, (R,R)-2,2'-[1,2-ethanediylbis[imino(1-methyl-2,1-ethanediyl)]]-bis[5-nitro-1H-benz[de]isoquinoline-1,3(2H)-dione]methanesulfonate (1:2)] | 0.051 (≈ 0.0817 µM) | excellent to outstanding activity | excellent to outstanding activity | good to excellent activity (inhibition of ≥90% is condidered good to excellent activity) | 
5 | C[C@@H](CN1C(=O)c2cccc3cccc(c23)C1=O)NCCN[C@@H](C)CN1C(=O)c2cccc3cccc(c23)C1=O [Example 28, (S,S)-2,2'-[1,2-ethanediylbis[imino(2-methyl-2,1-ethanediyl)]]-bis[^1 H-benz[de]isoquinoline-1,3(2H)-dione]methanesulfonate (1:2)] |  |  |  |  | 0.21 (≈ 0.393 µM)
6 | CC(CNCCNCC(C)N1C(=O)c2cccc3cc([N+](=O)[O-])cc(c23)C1=O)N1C(=O)c2cccc3cc([N+](=O)[O-])cc(c23)C1=O (racemic) [Example 2, (Racemate+meso)-2,2'-[1,2-ethanediylbis[imino(1-methyl-2,1-ethanediyl)]]-bis[5-nitro-1H-benz[de]isoquinoline-1,3(2H) -dione]methanesulfonate (1:2)] | 0.062 (≈ 0.0993 µM) | excellent to outstanding activity | excellent to outstanding activity | good to excellent activity (inhibition of ≥90% is condidered good to excellent activity) | 
7 | C[C@H](CN1C(=O)c2cc([N+](=O)[O-])cc3cc([N+](=O)[O-])cc(c23)C1=O)NCCN[C@H](C)CN1C(=O)c2cc([N+](=O)[O-])cc3cc([N+](=O)[O-])cc(c23)C1=O [Example 32] | 0.057 (≈ 0.0798 µM) |  |  |  | 
8 | C[C@H](CNCCNC[C@H](C)N1C(=O)c2cccc3cc([N+](=O)[O-])cc(c23)C1=O)N1C(=O)c2cccc3cc([N+](=O)[O-])cc(c23)C1=O [Example 26, (Meso)-2,2'-[1,2-ethanediylbis[imino(1-methyl-2,1-ethanediyl)]]-bis[5-nitro-1H-benz[de]isoquinoline-1,3(2H)-dione]methanesulfonate (1:2)] | 0.074 (≈ 0.118 µM) | excellent to outstanding activity |  |  | 
9 | C[C@@H](CN1C(=O)c2cccc3cc([N+](=O)[O-])cc(c23)C1=O)NCCN[C@@H](C)CN1C(=O)c2cccc3cc([N+](=O)[O-])cc(c23)C1=O [Example 27, (S,S)-2,2'-[1,2-ethanediylbis[imino(2-methyl-2,1-ethanediyl)]]-bis[5-nitro-1H-benz[de]isoquinoline-1,3(2H)-dione]methanesulfonate (1:2)] | 0.0025 (≈ 0.004 µM) | excellent to outstanding activity | excellent to outstanding activity | good to excellent activity (inhibition of ≥90% is condidered good to excellent activity) | 
10 | C[C@@H](CNCCNC[C@H](C)N1C(=O)c2cccc3cc([N+](=O)[O-])cc(c23)C1=O)N1C(=O)c2cccc3cc([N+](=O)[O-])cc(c23)C1=O [Example 1, (S,S)-2,2'-[1,2-ethanediylbis[imino(1-methyl-2,1-ethanediyl)]]-bis[5-nitro-1H-benz[de]isoquinoline-1,3(2H)-dione]methanesulfonate (1:2)] | 0.047 (≈ 0.0752 µM) | excellent to outstanding activity | good to excellent activity (inhibition of ≥90% is condidered good to excellent activity) |  | 
11 | CS(=O)(=O)O.CS(=O)(=O)O.C[C@H](CN1C(=O)c2cccc3cc([N+](=O)[O-])cc(c23)C1=O)NCCN[C@H](C)CN1C(=O)c2cccc3cc([N+](=O)[O-])cc(c23)C1=O [Example 29, (R,R)-2,2'-[1,2-ethanediylbis[imino(2-methyl)-2,1-ethanediyl)]-bis[5-nitro-1H-benz[de]isoquinoline-1,3(2H)-dione]-methanesulfonate (1:2)] | < 0.01 | good to excellent activity (inhibition of ≥90% is condidered good to excellent activity) | excellent to outstanding activity | good to excellent activity (inhibition of ≥90% is condidered good to excellent activity) | 
12 | C[C@@H](CN[C@@H](C)CN1C(=O)c2cccc3cc([N+](=O)[O-])cc(c23)C1=O)NC[C@H](C)N1C(=O)c2cccc3cc([N+](=O)[O-])cc(c23)C1=O [Example 43] | 0.04 (≈ 0.0626 µM) |  |  |  | 
